Test results from patent publication US20240196889A1, “USE OF DI- AND TRI[…] ACIDS IN THE PREVENTION OF BIOFILM FORMATION” (priority 2020, published 2024).
Values after ≈ are worked out from the molar mass of the structure shown.

How the values were obtained:
Salmonella = experiment: Minimal inhibitory concentration (MIC) assay; assay type: cell-based, Salmonella enterica serovar Typhimurium; details: TSB 1/20, 24 h, 25° C., same conditions as the biofilm assay
Experimental: MIC values were determined in a 96-well plate. Two-fold serial dilutions of agaric acid or DMSO were prepared in 100 μl of TSB 1/20 and 100 μL of the inoculum diluted 1/100 in TSB 1/20 was added. The plate was covered with a Breathable Sealing Membrane and a lid and incubated for 24 h at 25° C., shaking at 200 rpm.

[1] = tested on: Salmonella Typhimurium ATCC 14028; experiment: Antibiofilm assay (static peg assay, Calgary biofilm device, crystal violet staining; planktonic growth via OD600); assay type: cell-based, Salmonella enterica serovar Typhimurium
Experimental: (§1) A static peg assay for the prevention of bacterial biofilm formation was used as described previously. A lid carrying 96 polystyrene pegs was fitted into a microtiter plate with a peg hanging into each well. Two-fold serial dilutions of the compounds in 100 μl liquid broth per well were prepared in the microtiter plate. Subsequently, an overnight culture was diluted 1:100 into the respective liquid broth, and 100 μl (˜10^6 cells) was added to each well of the microtiter plate, resulting in a total amount of 200 μl medium per well. After placing the lid on the microtiter plate, samples containing Salmonella, Pseudomonas or E. coli were incubated statically in TSB 1/20 for 48 h at 25° C., whereas S. aureus was incubated in undiluted TSB at 37° C. for 48 h. After incubation, the lid was removed from the microtiter plate and liquid culture was transferred to a new microtiter plate prior to determining the prior to determining the planktonic growth in each well via OD600 measurements using a Synergy MX multimode reader (Biotek, Winooski, VT). The pegs were washed once in 200 μl PBS and the remaining attached bacteria were stained for 30 min with 200 μl 0.1% crystal violet in an isopropanol-methanol-PBS solution (1:1:18). Excess stain was washed off by placing the pegs in a 96-well plate filled with 200 μl distilled water per well. Afterwards, the pegs were air dried for 30 min and the dye bound to the adherent cells dissolved into 200 μl 30% glacial acetic acid. The OD570 of each well was measured using a Synergy MX multimode reader. Data was analysed using the GraphPad Prism 6 software.

[2] = tested on: S. Typhimurium SL1344 (S1), S. Typhimurium ATCC14028 (S2) and E. coli MG1655 (E1); experiment: Mixed-species biofilm assay (CFU); assay type: cell-based, Salmonella Typhimurium and E. coli
Source text: In situ, biofilms are typically complex communities consisting of various bacterial strains and species [Elias & Banin (2012) FEMS Microbiol Rev 36, 990-1004; Burmølle et al. (2014) Trends Microbiol 22, 84-91; Giaouris et al. (2015) Front Microbiol 6, Article 841; Mitri & Richard Foster (2013) Communities. Annual Review of Genetics 47, 247-273]. […] Microbial ecology 68, 146-154]. Hereto, a a previously characterized model community was utilized consisting of two Salmonella and one E. coli strain (S. Typhimurium SL1344 (S1), S. Typhimurium ATCC14028 (S2) and E. coli MG1655 (E1)). […] The reduced biofilm productivity of the mixed-species community is mainly due to the inhibition of the S2 strain (FIG. 6B). The lack of […] inhibition in mixed-species conditions is possibly due to agaric acid weakening the competitive interactions experienced by S1 (FIG. 6C). […] Consequently, […] detected the damage imposed by competition via its stress response systems and induces a competitive response. […] Therefore, it was subsequently explored whether agaric acid can interfere with the increased tolerance in mixed-species conditions by weakening the competition and preventing the induction of this competitive response.
ONCs of S1, S2 and E1 were normalized to an OD595 of 3.2 and added to a small (60 mm Ø) glass Petri dishes containing 10 ml of 1/20 TSB. The three strain were inoculated in a 1:1:1 ratio and incubated under static conditions at 25° C. for 48 h. The same total number of cells was inoculated in mono- and mixed-species conditions (˜12*10^7 cells ml^−1). Afterwards, the liquid above the biofilms was poured off and the biofilms were scraped off the bottom of the plate in 1 ml of PBS, passed through a syringe (25 G) and vortexed to break down the biofilm structure and ensure an homogenous suspension during dilution. The number of colony forming units (CFU) of biofilms was determined by plating. To differentiate between the strains, S1 was labelled with constitutive gfpmut3 on a plasmid, while S2 and E1 were labelled with plasmid-encoded constitutive dsRed.T4. […]

[3] = tested on: Salmonella Typhimurium ATCC 14028; experiment: Staining of flagella; assay type: cell-based, Salmonella enterica serovar Typhimurium; details: 100 μM vs DMSO, 24 h
Experimental: An ONC of Salmonella Typhimurium ATCC 14028 was diluted 1/100 in 5 ml TSB 1/20, with either a final concentration of 100 μM agaric or the corresponding amount of DMSO as a control. The planktonic cultures were incubated for 24 h at 25° C., shaking at 200 rpm. The flagella were stained according to Kearns and Losick (2003) Molecular microbiology 49, 581-590. Briefly, the stain consist of ten parts mordant (2 g tannic acid, 10 ml 5% phenol, 10 ml saturated aqueous AIK(SO4)2) mixed with one part stain (12% crystal violet in ethanol). 3 μl of sample was applied to a microscopic slide and covered with a 22 mm×40 mm coverslip. After placing the slide vertically, 10 μl was applied to the top edge of the coverslip in order to stain the sample due to capillary forces. Samples were visualized with phase contrast using a Zeiss Axio Imager Z1 microscope with an EC Plan Neofluar (×100 magnification/1.3 numerical aperture) objective.

P. aeruginosa PA14 = experiment: Antibiofilm assay (Calgary biofilm device); assay type: cell-based, Pseudomonas aeruginosa
Experimental: as §1

In the case of CCCCCCCCCCCCCCCCC(C(=O)O)C(O)(CC(=O)O)C(=O)O (stereo not shown) [Agaric acid, 2-hydroxynonadecane-1,2,3-tricarboxylic acid], the MIC (Salmonella) is reported as 8 mM (≈ 3330 µg/mL), the inhibition at 800 µM ([1]; Salmonella enterica, at 800 μM, crystal violet staining, read-out: inhibition of biofilm formation) is reported as 99.9% and the “planktonic growth (OD600)” value ([1]; after 48 h incubation in the Calgary biofilm device) is reported as “not inhibited”. For the same molecule, the “concentrations at which biofilm formation is significantly prevented” value ([1]; crystal violet staining, TSB 1/20, 48 h, 25° C.) was “higher than 100 μM”, the “planktonic growth (OD600) at the highest concentration” value ([1]; highest concentration tested) was “enhanced” and the “competition experienced by S1 in presence of S2 and E1” value [2] was “weakens the competition experienced by S1”. For the same molecule, the “biofilm formation of S2 strain in the mixed-species community” value ([2]; 100 μM) was “significantly inhibited”, the “number of biofilm cells of mixed-species consortium attached to abiotic surface” value ([2]; S1, S2 and E1 1:1:1, 48 h, 25° C.) was “significantly reduced the number of biofilm cells” and the flagellar appearance [3] was “no differences in flagellar appearance”. For the same molecule, the “planktonic growth (OD600)” value (P. aeruginosa PA14) was “inhibits”, the “biofilm inhibition versus planktonic growth inhibition” value (P. aeruginosa PA14; comparison of effective concentrations) was “planktonic growth is reduced at lower concentrations than biofilm inhibition” and the biofilm formation (P. aeruginosa PA14; crystal violet staining) was “inhibits”. The “biofilm inhibition versus planktonic growth inhibition at high concentrations” value (P. aeruginosa PA14; high concentrations of agaric acid) was “biofilm formation is inhibited to a higher extent than planktonic growth”.
